# According to the supplement of paper PMC10307832:
# Legend:
# Assay in all cases: relative viability (nuclei count vs DMSO), 5 days (fraction); higher = more cells survive
# Serdemetan + Navitoclax = compound: c1ccc2c(CCNc3ccc(Nc4ccncc4)cc3)c[nH]c2c1 [Serdemetan] + CC1(C)CCC(c2ccc(Cl)cc2)=C(CN2CCN(c3ccc(C(=O)NS(=O)(=O)c4ccc(N[C@H](CCN5CCOCC5)CSc5ccccc5)c(S(=O)(=O)C(F)(F)F)c4)cc3)CC2)C1 [Navitoclax] (partner 0.5 µM)
# Method in brief: (§1)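 Relative viability was taken as the ratio of nuclei in treated wells to nuclei in vehicle wells. Lung cancer cell lines in 1536-well plates received compounds by pin tool one day after seeding, either one drug alone or a fixed anchor-drug dose plus five library-drug doses (not always all listed) in √10 steps. Nuclei were counted on 4× images after 5 days of treatment, and values are medians of duplicate plates.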
# Selisistat + Vorinostat = compound: C1CC(C2=C(C1)C3=C(N2)C=CC(=C3)Cl)C(=O)N [Selisistat] + O=C(CCCCCCC(=O)Nc1ccccc1)NO [Vorinostat] (partner 1 µM)
# Method in brief: as §1
# Serdemetan + Linsitinib = compound: c1ccc2c(CCNc3ccc(Nc4ccncc4)cc3)c[nH]c2c1 [Serdemetan] + C[C@]1(O)C[C@@H](c2nc(-c3ccc4ccc(-c5ccccc5)nc4c3)c3c(N)nccn32)C1 [Linsitinib] (partner 1 µM)
# Method in brief: as §1
# Selisistat + OSI-027 = compound: C1CC(C2=C(C1)C3=C(N2)C=CC(=C3)Cl)C(=O)N [Selisistat] + COc1cccc2cc(-c3nc([C@H]4CC[C@H](C(=O)O)CC4)n4ncnc(N)c34)[nH]c12 [OSI-027] (partner 0.5 µM)
# Method in brief: as §1
Cell Line,relative viability (Serdemetan + Navitoclax; first compound 0.04 µM),relative viability (Serdemetan + Navitoclax; first compound 0.1265 µM),relative viability (Serdemetan + Navitoclax; first compound 0.4 µM),relative viability (Serdemetan + Navitoclax; first compound 1.265 µM),relative viability (Serdemetan + Navitoclax; first compound 4 µM),relative viability (Selisistat + Vorinostat; first compound 0.4 µM),relative viability (Selisistat + Vorinostat; first compound 1.265 µM),relative viability (Selisistat + Vorinostat; first compound 4 µM),relative viability (Selisistat + Vorinostat; first compound 12.65 µM),relative viability (Selisistat + Vorinostat; first compound 40 µM),relative viability (Serdemetan + Linsitinib; first compound 0.04 µM),relative viability (Serdemetan + Linsitinib; first compound 0.1265 µM),relative viability (Serdemetan + Linsitinib; first compound 0.4 µM),relative viability (Serdemetan + Linsitinib; first compound 1.265 µM),relative viability (Serdemetan + Linsitinib; first compound 4 µM),relative viability (Selisistat + OSI-027; first compound 0.4 µM),relative viability (Selisistat + OSI-027; first compound 1.265 µM),relative viability (Selisistat + OSI-027; first compound 4 µM),relative viability (Selisistat + OSI-027; first compound 12.65 µM),relative viability (Selisistat + OSI-027; first compound 40 µM)
HCC-78,0.758,0.898,0.774,0.756,0.384,0.495,0.467,0.437,0.428,0.6,0.505,0.525,0.542,0.499,0.257,0.379,0.346,0.316,0.382,0.359
HCC-366,1.03,0.981,0.522,0.0806,0.0474,0.464,0.434,0.57,0.441,0.384,0.731,0.317,0.244,0.0612,0.0456,1.01,0.837,0.605,0.889,0.898
HCC-827,1.02,0.941,–,0.787,0.753,0.851,0.829,0.862,0.862,0.837,0.892,0.9,–,0.689,0.762,0.763,0.766,0.705,0.746,0.768
HOP-62,1.08,0.942,1.05,0.944,0.962,0.604,0.783,0.735,0.613,0.923,1.02,0.934,0.968,0.738,0.47,0.856,0.788,0.826,0.809,0.915
IA-LM,0.822,0.648,0.692,0.341,0.239,1.09,–,–,0.926,1.22,0.549,0.679,0.537,0.394,0.388,–,–,–,–,–
LC-2-ad,0.5,0.418,0.427,–,0.293,0.769,0.704,0.774,0.806,0.764,0.908,0.805,0.857,–,0.722,0.987,–,0.693,0.85,0.794
LCLC-97TM1,0.472,0.32,0.278,0.364,0.377,0.646,0.72,–,0.597,0.75,0.211,0.172,0.186,0.12,0.181,0.59,0.653,–,0.553,0.619
LCLC-103H,–,–,–,–,–,0.824,0.908,0.747,0.803,0.953,0.81,1.06,1.09,0.918,0.778,0.486,0.469,0.348,0.479,0.442
LK-2,0.918,0.889,1.2,0.953,0.746,0.396,0.308,0.376,0.339,0.365,0.48,0.545,0.527,0.49,0.491,0.196,0.179,0.174,0.179,0.255
NCI-H358,–,–,–,–,–,0.766,0.636,0.686,0.778,0.8,0.672,0.781,0.679,0.465,0.651,0.926,0.802,0.363,0.709,0.905
NCI-H522,–,–,–,–,–,0.908,0.868,0.835,0.919,1.13,–,–,–,–,–,0.744,0.677,0.61,0.756,0.681
NCI-H650,–,–,–,–,–,0.396,0.438,0.632,0.481,0.548,0.681,0.922,0.883,0.737,0.688,0.524,0.523,0.715,0.496,0.555
NCI-H661,–,–,–,–,–,0.824,0.77,0.829,0.727,0.66,0.521,0.635,0.606,0.563,0.418,0.749,0.81,0.744,0.629,0.564
NCI-H1299,1.02,1.03,1.02,0.942,0.835,–,–,–,–,–,0.923,0.999,0.969,0.777,0.669,–,–,–,–,–
NCI-H1563,–,–,–,–,–,–,–,–,–,–,1.13,1.03,0.94,1.06,0.759,0.761,0.761,0.76,0.655,0.703
NCI-H1623,–,–,–,–,–,–,–,–,–,–,–,–,–,–,–,0.421,0.413,0.366,0.46,0.451
NCI-H1648,–,–,–,–,–,0.289,0.446,–,0.596,0.39,–,–,–,–,–,0.274,0.274,0.264,0.237,0.277
NCI-H1650,1.02,1.19,1.19,1.18,0.722,0.578,0.533,0.704,0.726,0.67,–,–,–,–,–,0.633,0.517,0.551,0.534,0.611
NCI-H1703,1.05,1.24,1.17,0.958,0.951,–,–,–,–,–,0.515,1.04,0.765,0.654,0.608,–,–,–,–,–
NCI-H1792,0.655,0.587,0.551,0.355,0.476,–,–,–,–,–,0.565,0.527,0.557,0.378,0.231,0.745,0.68,–,0.644,0.689
NCI-H2170,0.591,0.705,0.52,0.554,0.601,0.868,0.8,0.845,0.917,0.964,–,–,–,–,–,0.839,0.692,0.63,0.766,0.739
NCI-H2342,–,–,–,–,–,0.749,0.646,0.626,0.899,0.897,–,–,–,–,–,0.654,0.589,0.493,0.577,0.628
SW 900,–,–,–,–,–,0.684,0.705,0.518,0.747,0.781,–,–,–,–,–,0.447,0.57,0.462,0.495,0.484
